From publication PMC12904036, “Mechanism‐Driven Screening of Membrane‐Targeting and Pore‐Forming Antimicrobial Peptides” (Advanced Science, 2025)
Where two headings read alike, the source gives them in different places. Ends that are not written are not given here.

Key:
HEK293T cells = test: Cytotoxicity, Alamar Blue assay; type: cell-based
Method: Cytotoxicity was evaluated using the Alamar Blue assay on HEK293T cells. HEK293T cells were cultured in DMEM supplemented with 10% FBS and incubated at 37 °C with 5% CO2. Amphotericin B and staurosporine were used as controls. Peptide solutions were diluted in PBS (pH 7.4) with final concentrations ranging from 1 to 128 µg·mL^−1. The cells were treated with peptides for 72 h. After that, 10 µL Alamar Blue was added into each well. The plate was incubated for 4 hours under dark condition and detected the absorbance at 570 nm. The inhibition rate of cell growth was calculated via (OD570, peptide ‐ OD570, PBS) / (OD570, staurosporine ‐ OD570, PBS). The half maximal cytotoxic concentration (CC50) was fitted with GraphPad Prism. Each test was conducted in triplicate.

[1] = test system: Bacillus subtilis ATCC 6633; type: cell-based; conditions: ATCC 6633, 20 h
Method: (§1) The minimal inhibitory concentration (MIC) of all screened peptides were determined by the microbroth dilution method. Bacterial strains included four Gram‐negative strains (Acinetobacter baumanii ATCC 17978, Acinetobacter baumanii ATCC 19606, Escherichia coli ATCC 25922, Escherichia coli DH5 α ) and seven Gram‐positive strains (Staphylococcus aureus ATCC 25923, Staphylococcus aureus ATCC 6538, Bacillus subtilis ATCC 6633, Enterococcus faecalis ATCC 29212, Micrococcus luteus CMCC(B) 28001, Staphylococcus capitis ATCC 27842, Staphylococcus hominis ATCC 27844). Bacteria were incubated overnight at 37 °C and diluted to 5 × 10^5 cfu·mL^−1. Then 99 µL bacterial suspension was added into each well of a 96‐well plate. Peptides were dissolved in cation adjusted Mueller‐Hinton (CAMHB) medium at an initial concentration of 1 mg·mL^−1 and then diluted in twofold gradient concentrations, ranging from 0.125 to 128 µg·mL^−1 with 1 µL in each well. The plate was placed in incubator for 20 h at 37 °C. The lowest concentration of peptide causing no observed bacteria grow was its MIC.

[2] = synthesis report, ref ChinaPeptides Co., Ltd. quality reports, Figure S7, cited from earlier work
[3] = test system: Micrococcus luteus CMCC(B) 28001; type: cell-based; conditions: CMCC(B) 28001, 20 h
Method: as §1

[4] = test system: Staphylococcus hominis ATCC 27844; type: cell-based; conditions: ATCC 27844, 20 h
Method: as §1

[5] = test system: Staphylococcus capitis ATCC 27842; type: cell-based; conditions: ATCC 27842, 20 h
Method: as §1

[6] = test system: Enterococcus faecalis ATCC 29212; type: cell-based; conditions: ATCC 29212, 20 h
Method: as §1

[7] = test system: Acinetobacter baumanii ATCC 19606; type: cell-based; conditions: ATCC 19606, 20 h
Method: as §1

[8] = test system: Acinetobacter baumanii ATCC 17978; type: cell-based; conditions: ATCC 17978, 20 h
Method: as §1

[9] = test system: Staphylococcus aureus ATCC 25923; type: cell-based; conditions: ATCC 25923, 20 h
Method: as §1

Escherichia coli DH5α = type: cell-based; conditions: 20 h
Method: as §1

[10] = test system: Staphylococcus aureus ATCC 6538; type: cell-based; conditions: ATCC 6538, 20 h
Method: as §1

[11] = test system: Escherichia coli ATCC 25922; type: cell-based; conditions: ATCC 25922, 20 h
Method: as §1

Molecule | Cytotoxicity CC50 HEK293T (HEK293T cells) [µg/mL] | Cytotoxicity CC50 HEK293T (HEK293T cells; HEK293T, Alamar Blue, 72 h treatment, 1 to 128 µg/mL, absorbance 570 nm, triplicate) [µg/mL] | MIC B. subtilis ATCC 6633 [1] [µg/mL] | Solubility ([2]; in 25%ACN/75%H2O) [µg/mL] | MIC M. luteus CMCC(B) 28001 [3] [µg/mL] | MIC S. hominis ATCC 27844 [4] [µg/mL] | MIC S. capitis ATCC 27842 [5] [µg/mL] | MIC E. faecalis ATCC 29212 [6] [µg/mL] | MIC A. baumannii ATCC 19606 [7] [µg/mL] | MIC A. baumannii ATCC 17978 [8] [µg/mL] | MIC S. aureus ATCC 25923 [9] [µg/mL] | MIC E. coli DH5α (Escherichia coli DH5α) [µg/mL] | MIC S. aureus ATCC 6538 [10] [µg/mL] | MIC E. coli ATCC 25922 [11] [µg/mL] | Solubility ([2]; in 15%ACN/85%H2O) [µg/mL]
C[C@@H]1[C@H](O)[C@@H](C)/C=C/C=C/C=C/C=C/C=C/C=C/C=C/[C@H](O[C@@H]2O[C@H](C)[C@@H](O)[C@H](N)[C@@H]2O)C[C@@H]2O[C@](O)(C[C@@H](O)C[C@@H](O)[C@H](O)CC[C@@H](O)C[C@@H](O)CC(=O)O[C@H]1C)C[C@H](O)[C@H]2C(=O)O [Amphotericin B] | 67.06 | – | – | – | – | – | – | – | – | – | – | – | – | – | –
CN[C@@H]1C[C@H]2O[C@@](C)([C@@H]1OC)n1c3ccccc3c3c4c(c5c6ccccc6n2c5c31)C(=O)NC4 [Staurospotine, Staurosporine] | – | 0.26 | – | – | – | – | – | – | – | – | – | – | – | – | –
AKLVALVNKFIGYLKQNTYC [Peptide 201] | – | – | 32 | 1000 | – | – | – | – | – | – | – | – | – | – | –
GFKSKLEQISGICRPLFAAMWK [Peptide 68] | > 128 | – | 64 | 1000 | 128 | 32 | 16 | – | – | – | – | – | – | – | –
GPIHRLINPFFNLLQGIFTN [Peptide 98] | – | – | 32 | 1000 | 128 | – | – | – | – | – | – | – | – | – | –
IYKILQLFHKRFKKGFFG [Peptide 1304] | – | – | 4 | – | 16 | 4 | 4 | 128 | 16 | 16 | 128 | 32 | 16 | 64 | 1000
KKIASIIYAHVKALRARKILDNLKRLAANRP [Peptide 615] | – | – | 16 | – | 64 | 8 | 16 | – | 16 | 32 | – | 8 | – | 64 | 1000
KLAKLLKLLLWAQNELDQKK [Peptide 623] | – | – | 8 | – | 64 | 16 | 64 | – | 32 | 32 | 128 | 128 | 32 | 128 | 1000
KVKVLIIRKLTRHIAKLKSKK [Peptide 58] | – | – | 8 | – | 8 | 2 | 4 | 128 | 128 | – | – | – | – | – | 1000
